Test results reported in patent publication US20240124427A1, “HYDROXYHETEROCYCLOALKANE-CARBAMOYL DERIVATIVES” (Idorsia Pharmaceuticals Ltd, priority 2021, published 2024).
Like-named read-outs stand apart in the source and are kept apart here.

How the values were obtained:
human Gal-3 (hGal-3) = human Gal-3 (hGal-3) (Homo sapiens (Human), UniProt P17931); test: Competitive binding assay: biotinylated hGal-3 binding to microplate-adsorbed asialofetuin (ASF)
Method in brief: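 Spectrophotometric read-out using streptavidin-peroxidase and ABTS quantifies how much biotin-hGal-3 remains bound to microplate asialofetuin after 3 h at 4 °C with compound present. Values are means of repeated IC50 determinations.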

human Gal-1 (hGal-1) = human Gal-1 (hGal-1) (Homo sapiens, UniProt P09382); format: binding
[1] = Activity on hGal-3, mean values of several measurements, mixture of diastereomers measured where not separated

Sequence of human Gal-3 (hGal-3) (P17931 whole entry): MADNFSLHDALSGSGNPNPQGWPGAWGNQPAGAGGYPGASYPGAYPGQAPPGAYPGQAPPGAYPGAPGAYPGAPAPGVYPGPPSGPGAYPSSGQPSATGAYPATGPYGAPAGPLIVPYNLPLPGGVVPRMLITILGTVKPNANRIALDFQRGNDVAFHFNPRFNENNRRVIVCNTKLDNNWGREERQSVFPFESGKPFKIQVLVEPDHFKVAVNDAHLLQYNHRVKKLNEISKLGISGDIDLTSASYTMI
Sequence of human Gal-1 (hGal-1) (P09382 2-135 limits assumed): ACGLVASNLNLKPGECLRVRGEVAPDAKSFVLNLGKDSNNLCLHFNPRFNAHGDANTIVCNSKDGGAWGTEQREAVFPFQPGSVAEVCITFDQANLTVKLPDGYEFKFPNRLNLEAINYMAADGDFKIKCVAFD

Compound | IC50 (human Gal-3 (hGal-3)) | IC50 (human Gal-1 (hGal-1)) | IC50 (human Gal-3 (hGal-3); [1])
CO[C@@H]1[C@@H](n2cc(-c3cc(F)c(Cl)c(F)c3)nn2)[C@@H](O)[C@@H](CO)O[C@H]1C(=O)N(c1cc(Br)cc(Br)c1)[C@@H]1CN(C(C)=O)C[C@H]1O [Example 87] | 36 nM | 1860 nM | 
CO[C@@H]1[C@@H](n2cc(-c3ccc(Cl)c(Cl)c3)nn2)[C@@H](O)[C@@H](CO)O[C@H]1C(=O)N(c1cc(Cl)cc(Cl)c1)[C@@H]1CN(C(C)=O)C[C@H]1O [Example 88] | 71 nM | 657 nM | 
CO[C@@H]1[C@@H](n2cc(-c3cc(F)c(C)c(F)c3)nn2)[C@@H](O)[C@@H](CO)O[C@H]1C(=O)N(c1cc(C)cc(Br)c1)[C@H]1CNC[C@@H]1O [Example 70] | 56 nM | 1800 nM | 
CO[C@@H]1[C@@H](n2cc(-c3cc(F)c(F)c(F)c3)nn2)[C@@H](O)[C@@H](CO)O[C@H]1C(=O)N(c1cc(Br)cc(Br)c1)[C@H]1CN(C(C)=O)C[C@@H]1O [Example 84] | 70 nM | 1210 nM | 
CO[C@@H]1[C@@H](n2cc(-c3cc(F)c(C)c(F)c3)nn2)[C@@H](O)[C@@H](CO)O[C@H]1C(=O)N(c1cc(Br)cc(C#N)c1)[C@H]1COC[C@@H]1O [Example 17, (2R,3R,4S,5R,6R)-N-(3-bromo-5-cyanophenyl)-4-(4-(3,5-difluoro-4-methylphenyl)-1H-1,2,3-triazol-1-yl)-5-hydroxy-6-(hydroxymethyl)-N-((3S,4R)-4-hydroxytetrahydrofuran-3-yl)-3-methoxytetrahydro-2H-pyran-2-carboxamide] |  |  | 66 nM
CO[C@@H]1[C@@H](n2cc(-c3ccc(Br)c(F)c3F)nn2)[C@@H](O)[C@@H](CO)O[C@H]1C(=O)N(c1cc(Cl)cc(Cl)c1)[C@H]1CN(C=O)C[C@@H]1O [Example 91, (2R,3R,4S,5R,6R)-4-(4-(4-bromo-2,3-difluorophenyl)-1H-1,2,3-triazol-1-yl)-N-(3,5-dichlorophenyl)-N-((3S,4S)-1-formyl-4-hydroxypyrrolidin-3-yl)-5-hydroxy-6-(hydroxymethyl)-3-methoxytetrahydro-2H-pyran-2-carboxamide] |  |  | 20 nM
CO[C@@H]1[C@@H](n2cc(-c3cc(F)c(F)c(F)c3)nn2)[C@@H](O)[C@@H](CO)O[C@H]1C(=O)N(c1cccc(Br)c1)[C@H]1COC[C@@H]1O [Example 2, (2R,3R,4S,5R,6R)-N-(3-bromophenyl)-5-hydroxy-6-(hydroxymethyl)-N-((3S,4R)-4-hydroxytetrahydrofuran-3-yl)-3-methoxy-4-(4-(3,4,5-trifluorophenyl)-1H-1,2,3-triazol-1-yl)tetrahydro-2H-pyran-2-carboxamide] |  |  | 80 nM
CO[C@@H]1[C@@H](n2cc(-c3cc(F)c(F)c(F)c3)nn2)[C@@H](O)[C@@H](CO)O[C@H]1C(=O)N(c1cc(Br)cc(C#N)c1)[C@@H]1CN(C=O)C[C@H]1O [Example 93, (2R,3R,4S,5R,6R)-N-(3-bromo-5-cyanophenyl)-N-((3R,4R)-1-formyl-4-hydroxypyrrolidin-3-yl)-5-hydroxy-6-(hydroxymethyl)-3-methoxy-4-(4-(3,4,5-trifluorophenyl)-1H-1,2,3-triazol-1-yl)tetrahydro-2H-pyran-2-carboxamide] |  |  | 80 nM
CO[C@@H]1[C@@H](n2cc(-c3cc(F)c(C)c(F)c3)nn2)[C@@H](O)[C@@H](CO)O[C@H]1C(=O)N(c1cc(Cl)cc(Cl)c1)[C@@H]1CN(C(C)=O)C[C@H]1O [Example 85] | 327 nM | 13400 nM | 
CO[C@@H]1[C@@H](n2cc(-c3cc(F)c(F)c(F)c3)nn2)[C@@H](O)[C@@H](CO)O[C@H]1C(=O)N(c1cc(F)cc(C#N)c1)[C@H]1COC[C@@H]1O [Example 11, (2R,3R,4S,5R,6R)-N-(3-cyano-5-fluorophenyl)-5-hydroxy-6-(hydroxymethyl)-N-((3S,4R)-4-hydroxytetrahydrofuran-3-yl)-3-methoxy-4-(4-(3,4,5-trifluorophenyl)-1H-1,2,3-triazol-1-yl)tetrahydro-2H-pyran-2-carboxamide] |  |  | 124 nM
CO[C@@H]1[C@@H](n2cc(-c3cc(F)c(Cl)c(F)c3)nn2)[C@@H](O)[C@@H](CO)O[C@H]1C(=O)N(c1cc(Cl)cc(Cl)c1)[C@@H]1CN(C(C)=O)C[C@H]1O [Example 86] | 64 nM | 1780 nM | 
CO[C@@H]1[C@@H](n2cc(-c3cc(F)c(F)c(F)c3)nn2)[C@@H](O)[C@@H](CO)O[C@H]1C(=O)N(c1cc(Cl)cc(C#N)c1)[C@H]1COC[C@@H]1O [Example 5, (2R,3R,4S,5R,6R)-N-(3-chloro-5-cyanophenyl)-5-hydroxy-6-(hydroxymethyl)-N-((3S,4R)-4-hydroxytetrahydrofuran-3-yl)-3-methoxy-4-(4-(3,4,5-trifluorophenyl)-1H-1,2,3-triazol-1-yl)tetrahydro-2H-pyran-2-carboxamide] |  |  | 69 nM
CO[C@@H]1[C@@H](n2cc(-c3cc(F)c(F)c(F)c3)nn2)[C@@H](O)[C@@H](CO)O[C@H]1C(=O)N(c1cc(Br)cc(C#N)c1)[C@H]1CNC[C@@H]1O [Example 60, (2R,3R,4S,5R,6R)-N-(3-bromo-5-cyanophenyl)-5-hydroxy-6-(hydroxymethyl)-N-((3S,4S)-4-hydroxypyrrolidin-3-yl)-3-methoxy-4-(4-(3,4,5-trifluorophenyl)-1H-1,2,3-triazol-1-yl)tetrahydro-2H-pyran-2-carboxamide] |  |  | 51 nM
CO[C@@H]1[C@@H](n2cc(-c3ccc(C)c(F)c3F)nn2)[C@@H](O)[C@@H](CO)O[C@H]1C(=O)N(c1cc(C)cc(Br)c1)[C@@H]1COC[C@H]1O [Example 50, (2R,3R,4S,5R,6R)-N-(3-bromo-5-methylphenyl)-4-(4-(2,3-difluoro-4-methylphenyl)-1H-1,2,3-triazol-1-yl)-5-hydroxy-6-(hydroxymethyl)-N-((3R,4S)-4-hydroxytetrahydrofuran-3-yl)-3-methoxytetrahydro-2H-pyran-2-carboxamide] |  |  | 34 nM
CO[C@@H]1[C@@H](n2cc(-c3cc(F)c(F)c(F)c3)nn2)[C@@H](O)[C@@H](CO)O[C@H]1C(=O)N(c1cc(C)cc(Br)c1)[C@@H]1CN(C(C)=O)C[C@H]1O [Example 79, (2R,3R,4S,5R,6R)-N-((3R,4R)-1-acetyl-4-hydroxypyrrolidin-3-yl)-N-(3-bromo-5-methylphenyl)-5-hydroxy-6-(hydroxymethyl)-3-methoxy-4-(4-(3,4,5-trifluorophenyl)-1H-1,2,3-triazol-1-yl)tetrahydro-2H-pyran-2-carboxamide] |  |  | 76 nM
CO[C@@H]1[C@@H](n2cc(-c3cc(F)c(F)c(F)c3)nn2)[C@@H](O)[C@@H](CO)O[C@H]1C(=O)N(c1cc(Cl)cc(Cl)c1)[C@@H]1COC[C@H]1O [Example 33, (2R,3R,4S,5R,6R)-N-(3,5-dichlorophenyl)-5-hydroxy-6-(hydroxymethyl)-N-((3R,4S)-4-hydroxytetrahydrofuran-3-yl)-3-methoxy-4-(4-(3,4,5-trifluorophenyl)-1H-1,2,3-triazol-1-yl)tetrahydro-2H-pyran-2-carboxamide] |  |  | 104 nM
